Data on two molecules can be found in ChEMBL document CHEMBL1125697, “Synthesis and pharmacological examination of 1-(3-methoxy-4-methylphenyl)-2-aminopropane and 5-methoxy-6-methyl-2-aminoindan: similarities to 3,4-(methylenedioxy)methamphetamine (MDMA)” (J Med Chem, 1991).

Each structure is given as a SMILES string. “And” between values parts separate entries of the source, which are not always exact repeats. Equal values may be shown once.

The species entered for this assay is Rattus norvegicus. The assay is described as follows: Effective dose was evaluated for drug discrimination in I-trained rats. The assay is classed as functional.

For the molecule `CC[C@@H](Cc1ccc2c(c1)OCO2)NC`, the ED50 is 0.79 mg/kg and 3.25 µmol/kg. The figure for `CCN(CC)C(=O)[C@@H]1C=C2c3cccc4[nH]cc(c34)C[C@H]2N(C)C1` [LYSERGIDE] is 0.025 mg/kg and 0.058 µmol/kg.
